What was measured:
Pyk2 = target: T1, Pyk2 (Homo sapiens, UniProt Q14289); assay: ADP-Glo Kinase Assay, Pyk2; format: biochemical; details: ADP-Glo Kinase Assay Kit
T1 construct: purchased Promega V4083
Description: (§1) Briefly, a kinase test was performed and quantified according to the manufacturer's instructions after treating the adamantane derivative compound of the present invention by using the ADP-Glo™ Kinase Assay Kit (FAK, Promega, V1971; Pyk2, Promega, V4083; InsR, Promega, V9401) containing each kinase of Promega.

InsR = target: T2, InsR (Homo sapiens, UniProt P06213); assay: ADP-Glo Kinase Assay, InsR; format: biochemical; details: ADP-Glo Kinase Assay Kit
T2 construct: purchased Promega V9401
T2 sequence (P06213 28-1382): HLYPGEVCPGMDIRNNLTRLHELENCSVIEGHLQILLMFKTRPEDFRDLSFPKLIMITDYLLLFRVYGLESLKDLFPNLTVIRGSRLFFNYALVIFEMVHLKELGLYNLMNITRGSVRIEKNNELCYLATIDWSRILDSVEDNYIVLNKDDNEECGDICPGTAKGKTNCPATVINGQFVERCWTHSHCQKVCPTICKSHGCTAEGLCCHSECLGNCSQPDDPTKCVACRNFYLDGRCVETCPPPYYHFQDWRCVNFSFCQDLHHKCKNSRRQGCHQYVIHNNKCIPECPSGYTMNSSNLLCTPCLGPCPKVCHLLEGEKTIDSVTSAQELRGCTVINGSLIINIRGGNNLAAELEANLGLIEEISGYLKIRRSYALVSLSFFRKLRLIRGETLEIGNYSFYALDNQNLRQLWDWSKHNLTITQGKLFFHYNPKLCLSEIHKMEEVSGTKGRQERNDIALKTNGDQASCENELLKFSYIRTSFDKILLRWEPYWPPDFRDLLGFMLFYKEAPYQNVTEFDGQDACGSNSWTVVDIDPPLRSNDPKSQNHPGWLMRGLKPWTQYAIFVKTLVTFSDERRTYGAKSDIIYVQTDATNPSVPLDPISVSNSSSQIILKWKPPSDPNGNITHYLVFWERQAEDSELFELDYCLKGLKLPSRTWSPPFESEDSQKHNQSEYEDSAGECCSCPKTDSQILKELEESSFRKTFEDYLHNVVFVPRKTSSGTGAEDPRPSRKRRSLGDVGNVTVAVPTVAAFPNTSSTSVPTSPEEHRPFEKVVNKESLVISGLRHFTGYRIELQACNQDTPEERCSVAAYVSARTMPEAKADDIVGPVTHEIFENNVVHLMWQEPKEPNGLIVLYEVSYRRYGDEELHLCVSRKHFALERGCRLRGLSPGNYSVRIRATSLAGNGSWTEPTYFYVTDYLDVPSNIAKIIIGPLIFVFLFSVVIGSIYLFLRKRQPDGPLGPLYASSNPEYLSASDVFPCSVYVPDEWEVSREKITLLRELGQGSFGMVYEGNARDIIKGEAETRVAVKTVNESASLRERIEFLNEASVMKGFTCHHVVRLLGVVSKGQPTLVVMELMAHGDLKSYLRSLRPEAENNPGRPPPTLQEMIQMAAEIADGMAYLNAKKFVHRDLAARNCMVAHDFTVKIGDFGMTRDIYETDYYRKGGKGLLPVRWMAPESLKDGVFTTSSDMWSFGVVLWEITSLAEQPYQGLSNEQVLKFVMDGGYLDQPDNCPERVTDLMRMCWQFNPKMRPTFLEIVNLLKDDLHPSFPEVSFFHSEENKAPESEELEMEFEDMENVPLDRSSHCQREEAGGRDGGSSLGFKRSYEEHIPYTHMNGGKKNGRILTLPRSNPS
Description: as §1

FAK [1] = target: T3, FAK (Homo sapiens, UniProt Q05397); assay: ADP-Glo Kinase Assay, FAK; format: biochemical; design: purchased Promega V1971; details: ADP-Glo Kinase Assay Kit
T3 sequence (Q05397 whole entry): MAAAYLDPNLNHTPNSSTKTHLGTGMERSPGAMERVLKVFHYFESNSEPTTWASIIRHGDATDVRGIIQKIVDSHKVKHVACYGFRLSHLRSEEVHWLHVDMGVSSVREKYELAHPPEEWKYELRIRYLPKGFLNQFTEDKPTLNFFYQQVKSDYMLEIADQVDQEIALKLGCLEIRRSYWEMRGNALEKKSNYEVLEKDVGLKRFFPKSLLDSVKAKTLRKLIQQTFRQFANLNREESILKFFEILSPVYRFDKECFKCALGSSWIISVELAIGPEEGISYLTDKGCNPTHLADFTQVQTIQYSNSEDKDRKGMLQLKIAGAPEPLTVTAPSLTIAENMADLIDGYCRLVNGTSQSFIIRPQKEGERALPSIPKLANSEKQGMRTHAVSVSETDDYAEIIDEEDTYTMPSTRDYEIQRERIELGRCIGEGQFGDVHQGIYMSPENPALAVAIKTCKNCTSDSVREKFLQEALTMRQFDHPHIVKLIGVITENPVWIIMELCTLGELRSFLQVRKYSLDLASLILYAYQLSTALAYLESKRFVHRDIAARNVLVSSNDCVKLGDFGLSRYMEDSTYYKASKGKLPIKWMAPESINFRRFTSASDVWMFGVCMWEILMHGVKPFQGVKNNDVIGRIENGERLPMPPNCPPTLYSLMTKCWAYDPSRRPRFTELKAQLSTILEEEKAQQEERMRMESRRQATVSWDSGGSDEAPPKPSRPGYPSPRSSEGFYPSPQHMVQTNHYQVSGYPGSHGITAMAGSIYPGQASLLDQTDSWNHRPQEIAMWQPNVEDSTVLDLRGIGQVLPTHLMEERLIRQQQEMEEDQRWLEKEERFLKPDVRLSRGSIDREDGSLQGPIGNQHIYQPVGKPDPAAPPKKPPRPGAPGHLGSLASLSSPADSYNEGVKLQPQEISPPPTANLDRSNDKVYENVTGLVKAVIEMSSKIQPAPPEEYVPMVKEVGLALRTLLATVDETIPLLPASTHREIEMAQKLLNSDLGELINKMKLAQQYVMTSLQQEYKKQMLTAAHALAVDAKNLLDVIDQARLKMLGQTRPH
Description: as §1

FAK [2] = target: T3, FAK; assay: FAK [pY397] ELISA in MDA-MB-231 cells; format: cell-based; design: endogenous in cells; host or cells: MDA-MB-231; details: MDA-MB-231, treated for one hour, Table 2; read-out: FAK inhibitory activity (IC50)
Description: Briefly, an enzyme-linked immunosorbent assay test was performed according to the manufacturer's instructions by using the FAK (Phospho) [pY397] Human ELISA Kit (Thermo Fisher Scientific, KH00441) after dispensing 1×10^6 MDA-MB-231 cells into each well of a 6-well plate, inducing cell stabilization for 24 hours, and treating each compound at different concentrations (o, 1, 5, 10, 50, 100, 500, 1000 nM) for one hour.

[3] = preclinical study; cited from earlier work

T1 sequence (Q14289 whole entry): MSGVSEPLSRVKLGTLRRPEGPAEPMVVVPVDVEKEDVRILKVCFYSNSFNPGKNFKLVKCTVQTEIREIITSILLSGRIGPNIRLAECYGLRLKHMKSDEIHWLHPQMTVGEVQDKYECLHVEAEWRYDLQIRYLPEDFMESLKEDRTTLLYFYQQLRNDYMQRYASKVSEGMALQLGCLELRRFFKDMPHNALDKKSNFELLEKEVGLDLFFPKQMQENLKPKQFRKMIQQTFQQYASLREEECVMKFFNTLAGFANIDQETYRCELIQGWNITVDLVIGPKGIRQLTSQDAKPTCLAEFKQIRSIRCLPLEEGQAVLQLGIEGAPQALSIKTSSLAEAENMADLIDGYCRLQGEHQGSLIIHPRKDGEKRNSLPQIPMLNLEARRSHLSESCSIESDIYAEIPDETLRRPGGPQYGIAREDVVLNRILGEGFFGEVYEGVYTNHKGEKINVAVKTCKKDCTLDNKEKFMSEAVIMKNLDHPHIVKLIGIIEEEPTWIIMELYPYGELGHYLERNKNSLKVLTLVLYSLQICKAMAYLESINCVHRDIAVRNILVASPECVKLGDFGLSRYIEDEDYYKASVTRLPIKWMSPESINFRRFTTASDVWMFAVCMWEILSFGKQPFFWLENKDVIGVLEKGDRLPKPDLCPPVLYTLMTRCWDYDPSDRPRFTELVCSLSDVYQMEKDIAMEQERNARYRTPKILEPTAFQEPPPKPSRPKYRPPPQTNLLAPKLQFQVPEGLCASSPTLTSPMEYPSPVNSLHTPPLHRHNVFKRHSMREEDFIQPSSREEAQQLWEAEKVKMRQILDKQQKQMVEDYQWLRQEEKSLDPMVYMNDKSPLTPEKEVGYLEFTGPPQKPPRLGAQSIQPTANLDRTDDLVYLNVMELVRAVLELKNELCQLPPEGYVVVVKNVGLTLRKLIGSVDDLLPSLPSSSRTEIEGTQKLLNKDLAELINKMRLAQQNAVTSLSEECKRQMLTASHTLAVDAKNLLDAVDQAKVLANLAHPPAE

SMILES	IC50 (Pyk2)	IC50 (InsR)	IC50 (FAK [1])	IC50 (FAK [2])	side effects [3]
CNC(=O)c1cccc(C)c1Nc1nc(Nc2ccc(NC(=O)C34CC5CC(C3)C(N3CCOCC3)C(C5)C4)cc2OC)ncc1C(F)(F)F (centres unmarked) [Compound 25, N-(3-methoxy-4-((4-((2-methyl-6-(methylcarbamoyl)phenyl)amino)-5-(trifluoromethyl)pyrimidin-2-yl)amino)phenyl)-4-morpholinoadamantan-1-carboxamide]	90.6 nM	> 10000 nM	45.5 nM	27 nM	–
CNC(=O)c1cccc(C)c1Nc1nc(Nc2ccc(OC34CC5CC(C3)C(O)C(C5)C4)cc2OC)ncc1C(F)(F)F (centres unmarked) [Compound 11, 2-((2-((4-((4-hydroxyadamantan-1-yl)oxy)-2-methoxyphenyl)amino)-5-(trifluoromethyl)pyrimidin-4-yl)amino)-N,3-dimethylbenzamide]	231 nM	> 10000 nM	65.1 nM	118 nM	–
CNC(=O)c1cccc(C)c1Nc1nc(Nc2ccc(N[C@H]3C4CC5CC3C[C@](O)(C5)C4)cc2OC)ncc1C(F)(F)F [Compound 1, 2-((2-((4-(((trans)-5-hydroxyadamantan-2-yl)amino)-2-methoxyphenyl)amino)-5-(trifluoromethyl)pyrimidin-4-yl)amino)-N,3-dimethylbenzamide]	124 nM	> 10000 nM	82.9 nM	83 nM	–
CNC(=O)c1cccc(C)c1Nc1nc(Nc2ccc(NC3CCN(C4C5CC6CC(C5)CC4C6)CC3)cc2OC)ncc1C(F)(F)F (centres unmarked) [Compound 6, 2-((2-((4-((1-(adamantan-2-yl)piperidin-4-yl)amino)-2-methoxyphenyl)amino)-5-(trifluoromethyl)pyrimidin-4-yl)amino)-N,3-dimethylbenzamide]	157 nM	> 10000 nM	96.5 nM	118 nM	–
CNC(=O)c1ccccc1Nc1nc(Nc2ccc(N3CCOCC3)cc2OC)ncc1Cl [TAE226]	–	–	–	–	serious side effects such as unexpected inhibition of glucose metabolism, a decrease in blood concentration
CNC(=O)c1cccc(C)c1Nc1nc(Nc2ccc(NC(=O)[C@]34CC5CC(C3)[C@@H](N3CC[C@H](NC(C)=O)C3)C(C5)C4)cc2OC)ncc1C(F)(F)F [Compound 27, (trans)-4-((S)-3-acetamidopyrrolidin-1-yl)-N-(3-methoxy-4-((4-((2-methyl-6-(methylcarbamoyl)phenyl)amino)-5-(trifluoromethyl)pyrimidin-2-yl)amino)phenyl) adamantan-1-carboxamide]	81.4 nM	> 10000 nM	39.5 nM	55 nM	–
CNC(=O)c1cccc(C)c1Nc1nc(Nc2ccc(N3CCN(C4C5CC6CC(C5)CC4C6)CC3)cc2OC)ncc1C(F)(F)F (centres unmarked) [Compound 3, 2-((2-((4-(4-(adamantan-2-yl)piperazin-1-yl)-2-methoxyphenyl)amino)-5-(trifluoromethyl)pyrimidin-4-yl)amino)-N,3-dimethylbenzamide]	256 nM	> 10000 nM	154 nM	92 nM	–
CNC(=O)c1cccc(C)c1Nc1nc(Nc2ccc(OC34CC5CC(C3)C(=O)C(C5)C4)cc2OC)ncc1C(F)(F)F [Compound 10, 2-((2-((2-methoxy-4-((4-oxoadamantan-1-yl)oxy)phenyl)amino)-5-(trifluoromethyl)pyrimidin-4-yl)amino)-N,3-dimethylbenzamide]	–	> 10000 nM	96.7 nM	382 nM	–
CNC(=O)c1cccc(C)c1Nc1nc(Nc2ccc(NC3CCN([C@H]4C5CC6CC4C[C@](O)(C6)C5)CC3)cc2OC)ncc1C(F)(F)F [Compound 7, 2-((2-((4-((1-((trans)-5-hydroxyadamantan-2-yl)piperidin-4-yl)amino)-2-methoxyphenyl)amino)-5-(trifluoromethyl)pyrimidin-4-yl)amino)-N,3-dimethylbenzamide]	108 nM	6150 nM	46.9 nM	38 nM	–

Source: patent publication US12590070B2, “Adamantane derivatives as inhibitors of focal adhesion kinase” (SAMJIN PHARMACEUTICAL CO., LTD., priority 2019, dated 2026)
